According to PubChem BioAssay AID1963422 (Molecular Pharmacology Branch, DTP, NCI, 2024):

Tested on: 463943-066-T-J2-PDC complex spheroid growth
Assay: Anticancer human tumor 463943-066-T-J2-PDC patient-derived colon adenocarcinoma cell line growth inhibition [Asc]
Conditions: for IC50: curve of first compound; for viability, T/C: stronger effect = lower value
In short: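 Tumor cells were grown as complex spheroids with human endothelial cells (HUVEC) and human mesenchymal stem cells as stroma. Agents were tested alone and in combination, in half-log steps down from the clinical Cmax, or from 10 microM where Cmax was unknown.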

[1] = second compound 0.0316 µM, first compound 0.0316 µM
[2] = second compound 0.0316 µM, first compound 0.1 µM
[3] = second compound 0.0316 µM, first compound 0.316 µM
[4] = second compound 0.0316 µM, first compound 1 µM
[5] = second compound 0.1 µM, first compound 0.0316 µM
[6] = second compound 0.1 µM, first compound 0.1 µM
[7] = second compound 0.1 µM, first compound 0.316 µM
[8] = second compound 0.1 µM, first compound 1 µM
[9] = second compound 0.316 µM, first compound 0.0316 µM
[10] = second compound 0.316 µM, first compound 0.1 µM
[11] = second compound 0.316 µM, first compound 0.316 µM
[12] = second compound 0.316 µM, first compound 1 µM
[13] = second compound 1 µM, first compound 0.0316 µM
[14] = second compound 1 µM, first compound 0.1 µM
[15] = second compound 1 µM, first compound 0.316 µM
[16] = second compound 1 µM, first compound 1 µM
[17] = second compound 3.16 µM, first compound 0.0316 µM
[18] = second compound 3.16 µM, first compound 0.1 µM
[19] = second compound 3.16 µM, first compound 0.316 µM
[20] = second compound 3.16 µM, first compound 1 µM
[21] = second compound 10 µM, first compound 0.0316 µM
[22] = second compound 10 µM, first compound 0.1 µM
[23] = second compound 10 µM, first compound 0.316 µM
[24] = second compound 10 µM, first compound 1 µM
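Note: compound exposure lasted 7 days.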
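Throughout, for viability, T/C: 100% = DMSO vehicle control wells.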

C=C(F)C(=O)N1CCN(c2nc(OCC3CCCN3C)nc3c2CCN(c2cccc4cccc(Cl)c24)C3)CC1CC#N (stereo unspecified) + Cc1c(S(C)(=O)=O)c(-c2cc(F)cc(N3CCN(c4ccc(NS(=O)(=O)c5ccc(NC(CCN6CCC(C(=O)OCCCP(=O)(O)O)CC6)CSc6ccccc6)c(S(=O)(=O)C(F)(F)F)c5)cc4)CC3)c2)c(-c2ccc(Cl)cc2)n1C(C)C
IC50 (second compound 0.0316 µM): 5640 nM | IC50 (second compound 0.1 µM): 4890 nM | IC50 (second compound 0.316 µM): 3880 nM | IC50 (second compound 1 µM): 2300 nM | IC50 (second compound 3.16 µM): 1170 nM | IC50 (second compound 10 µM): < 31.6 nM | viability, T/C [1]: 92.4% | viability, T/C [2]: 95.5% | viability, T/C [3]: 95.9% | viability, T/C [4]: 106% | viability, T/C (second compound 0.0316 µM, first compound 3.16 µM): 93.1% | viability, T/C (second compound 0.0316 µM, first compound 10 µM): 7.35% | viability, T/C [5]: 98.2% | viability, T/C [6]: 93.5% | viability, T/C [7]: 90.8% | viability, T/C [8]: 98.4% | viability, T/C (second compound 0.1 µM, first compound 3.16 µM): 79.5% | viability, T/C (second compound 0.1 µM, first compound 10 µM): 1.47% | viability, T/C [9]: 92% | viability, T/C [10]: 85.7% | viability, T/C [11]: 87% | viability, T/C [12]: 85.7% | viability, T/C (second compound 0.316 µM, first compound 3.16 µM): 60.8% | viability, T/C (second compound 0.316 µM, first compound 10 µM): 0.26% | viability, T/C [13]: 80.3% | viability, T/C [14]: 80.4% | viability, T/C [15]: 72.5% | viability, T/C [16]: 72.4% | viability, T/C (second compound 1 µM, first compound 3.16 µM): 41.8% | viability, T/C (second compound 1 µM, first compound 10 µM): 0.2% | viability, T/C [17]: 62.4% | viability, T/C [18]: 58.4% | viability, T/C [19]: 56.4% | viability, T/C [20]: 54.5% | viability, T/C (second compound 3.16 µM, first compound 3.16 µM): 23.1% | viability, T/C (second compound 3.16 µM, first compound 10 µM): 0.22% | viability, T/C [21]: 46.1% | viability, T/C [22]: 47.7% | viability, T/C [23]: 47.4% | viability, T/C [24]: 41.7% | viability, T/C (second compound 10 µM, first compound 3.16 µM): 16.4% | viability, T/C (second compound 10 µM, first compound 10 µM): 0.26%

CCN1C(C(=O)NC23CCC(C(=O)O)(CC2)CC3)C(c2cccc(Cl)c2F)C2(C(=O)Nc3cc(Cl)ccc32)C12CCCCC2 (stereo unspecified) + Cc1c(S(C)(=O)=O)c(-c2cc(F)cc(N3CCN(c4ccc(NS(=O)(=O)c5ccc(NC(CCN6CCC(C(=O)OCCCP(=O)(O)O)CC6)CSc6ccccc6)c(S(=O)(=O)C(F)(F)F)c5)cc4)CC3)c2)c(-c2ccc(Cl)cc2)n1C(C)C
IC50 (second compound 0.0316 µM): > 3000 nM | IC50 (second compound 0.1 µM): > 3000 nM | IC50 (second compound 0.316 µM): > 3000 nM | IC50 (second compound 1 µM): > 3000 nM | IC50 (second compound 3.16 µM): 140 nM | IC50 (second compound 10 µM): < 9.49 nM | viability, T/C (second compound 0.0316 µM, first compound 0.00949 µM): 90.4% | viability, T/C (second compound 0.0316 µM, first compound 0.03 µM): 92.3% | viability, T/C (second compound 0.0316 µM, first compound 0.0949 µM): 89.3% | viability, T/C (second compound 0.0316 µM, first compound 0.3 µM): 76.5% | viability, T/C (second compound 0.0316 µM, first compound 0.949 µM): 70.2% | viability, T/C (second compound 0.0316 µM, first compound 3 µM): 61.8% | viability, T/C (second compound 0.1 µM, first compound 0.00949 µM): 88.9% | viability, T/C (second compound 0.1 µM, first compound 0.03 µM): 83.2% | viability, T/C (second compound 0.1 µM, first compound 0.0949 µM): 85.9% | viability, T/C (second compound 0.1 µM, first compound 0.3 µM): 73.3% | viability, T/C (second compound 0.1 µM, first compound 0.949 µM): 71.1% | viability, T/C (second compound 0.1 µM, first compound 3 µM): 60.8% | viability, T/C (second compound 0.316 µM, first compound 0.00949 µM): 80.6% | viability, T/C (second compound 0.316 µM, first compound 0.03 µM): 92.2% | viability, T/C (second compound 0.316 µM, first compound 0.0949 µM): 77.6% | viability, T/C (second compound 0.316 µM, first compound 0.3 µM): 71.4% | viability, T/C (second compound 0.316 µM, first compound 0.949 µM): 64.7% | viability, T/C (second compound 0.316 µM, first compound 3 µM): 57.2% | viability, T/C (second compound 1 µM, first compound 0.00949 µM): 70.1% | viability, T/C (second compound 1 µM, first compound 0.03 µM): 70.8% | viability, T/C (second compound 1 µM, first compound 0.0949 µM): 62.9% | viability, T/C (second compound 1 µM, first compound 0.3 µM): 58.4% | viability, T/C (second compound 1 µM, first compound 0.949 µM): 62% | viability, T/C (second compound 1 µM, first compound 3 µM): 51.2% | viability, T/C (second compound 3.16 µM, first compound 0.00949 µM): 55.8% | viability, T/C (second compound 3.16 µM, first compound 0.03 µM): 54.5% | viability, T/C (second compound 3.16 µM, first compound 0.0949 µM): 49.3% | viability, T/C (second compound 3.16 µM, first compound 0.3 µM): 48.2% | viability, T/C (second compound 3.16 µM, first compound 0.949 µM): 45.5% | viability, T/C (second compound 3.16 µM, first compound 3 µM): 39.4% | viability, T/C (second compound 10 µM, first compound 0.00949 µM): 46.7% | viability, T/C (second compound 10 µM, first compound 0.03 µM): 43.7% | viability, T/C (second compound 10 µM, first compound 0.0949 µM): 39.8% | viability, T/C (second compound 10 µM, first compound 0.3 µM): 34.8% | viability, T/C (second compound 10 µM, first compound 0.949 µM): 61.4% | viability, T/C (second compound 10 µM, first compound 3 µM): 34.5%

CNC(C)C(=O)NC1CN(S(=O)(=O)c2cccc(S(=O)(=O)N3CCC4CCC(C(=O)NC(c5ccccc5)c5ccccc5)N4C(=O)C(NC(=O)C(C)NC)C3)c2)CCC2CCC(C(=O)NC(c3ccccc3)c3ccccc3)N2C1=O (stereo unspecified) + Cc1c(S(C)(=O)=O)c(-c2cc(F)cc(N3CCN(c4ccc(NS(=O)(=O)c5ccc(NC(CCN6CCC(C(=O)OCCCP(=O)(O)O)CC6)CSc6ccccc6)c(S(=O)(=O)C(F)(F)F)c5)cc4)CC3)c2)c(-c2ccc(Cl)cc2)n1C(C)C
IC50 (second compound 0.0316 µM): > 1000 nM | IC50 (second compound 0.1 µM): > 1000 nM | IC50 (second compound 0.316 µM): > 1000 nM | IC50 (second compound 1 µM): > 1000 nM | IC50 (second compound 3.16 µM): > 1000 nM | IC50 (second compound 10 µM): 368 nM | viability, T/C (second compound 0.0316 µM, first compound 0.00316 µM): 99.7% | viability, T/C (second compound 0.0316 µM, first compound 0.01 µM): 97.5% | viability, T/C [1]: 97.2% | viability, T/C [2]: 99.9% | viability, T/C [3]: 97.6% | viability, T/C [4]: 80.7% | viability, T/C (second compound 0.1 µM, first compound 0.00316 µM): 100% | viability, T/C (second compound 0.1 µM, first compound 0.01 µM): 91.6% | viability, T/C [5]: 96.6% | viability, T/C [6]: 94.4% | viability, T/C [7]: 98.8% | viability, T/C [8]: 74% | viability, T/C (second compound 0.316 µM, first compound 0.00316 µM): 88.6% | viability, T/C (second compound 0.316 µM, first compound 0.01 µM): 89.3% | viability, T/C [9]: 88.2% | viability, T/C [10]: 87.4% | viability, T/C [11]: 93.2% | viability, T/C [12]: 70.6% | viability, T/C (second compound 1 µM, first compound 0.00316 µM): 82.8% | viability, T/C (second compound 1 µM, first compound 0.01 µM): 77% | viability, T/C [13]: 77.8% | viability, T/C [14]: 83.8% | viability, T/C [15]: 76.8% | viability, T/C [16]: 67.2% | viability, T/C (second compound 3.16 µM, first compound 0.00316 µM): 65.8% | viability, T/C (second compound 3.16 µM, first compound 0.01 µM): 77.3% | viability, T/C [17]: 66% | viability, T/C [18]: 68.9% | viability, T/C [19]: 70.7% | viability, T/C [20]: 48.2% | viability, T/C (second compound 10 µM, first compound 0.00316 µM): 52.3% | viability, T/C (second compound 10 µM, first compound 0.01 µM): 49.5% | viability, T/C [21]: 52% | viability, T/C [22]: 51.3% | viability, T/C [23]: 52.5% | viability, T/C [24]: 40.8%
